# Results: ChEMBL document CHEMBL4507273 (2021)
# Columns and labels:
# [1] = molecular target: Muscarinic acetylcholine receptor M2 (Homo sapiens, UniProt P08172); test: GPCRScan assay: inhibition of M2; design: radioligand conc. used [nm] 0.2 – 1.0, parental cells stable CHO
# [2] = test system: Tyrosine-protein kinase ABL1 (Homo sapiens), P00519 [F317I]; details: Compound concentration 1000.0 nM
# [3] = molecular target: Atypical kinase COQ8B, mitochondrial (Homo sapiens) (UniProt Q96D53); details: Compound concentration 1000.0 nM
# [4] = molecular target: Mitogen-activated protein kinase kinase kinase 6 (Homo sapiens) (UniProt O95382); details: Compound concentration 1000.0 nM
# [5] = molecular target: Serine/threonine-protein kinase B-raf (Homo sapiens) (UniProt P15056); details: Compound concentration 1000.0 nM
# [6] = molecular target: Cyclin-dependent kinase 8 (Homo sapiens) (UniProt P49336); details: Compound concentration 1000.0 nM
# [7] = molecular target: Dual specificity protein kinase CLK4 (Homo sapiens) (UniProt Q9HAZ1); details: Compound concentration 1000.0 nM
# [8] = molecular target: Death-associated protein kinase 1 (Homo sapiens) (UniProt P53355); details: Compound concentration 1000.0 nM
# [9] = molecular target: Death-associated protein kinase 2 (Homo sapiens) (UniProt Q9UIK4); details: Compound concentration 1000.0 nM
# [10] = molecular target: Serine/threonine-protein kinase 17A (Homo sapiens) (UniProt Q9UEE5); details: Compound concentration 1000.0 nM
# [11] = molecular target: Serine/threonine-protein kinase 17B (Homo sapiens) (UniProt O94768); details: Compound concentration 1000.0 nM
# [12] = molecular target: Dual specificity tyrosine-phosphorylation-regulated kinase 1A (Homo sapiens) (UniProt Q13627); details: Compound concentration 1000.0 nM
# [13] = test system: Epidermal growth factor receptor (Homo sapiens), P00533 [UNDEFINED MUTATION]; details: Compound concentration 1000.0 nM
# [14] = test system: Epidermal growth factor receptor (Homo sapiens), P00533 [L858R,T790M]; details: Compound concentration 1000.0 nM
# [15] = molecular target: Mitogen-activated protein kinase 3 (Homo sapiens) (UniProt P27361); details: Compound concentration 1000.0 nM
# [16] = molecular target: Mitogen-activated protein kinase 4 (Homo sapiens) (UniProt P31152); details: Compound concentration 1000.0 nM
# [17] = molecular target: Fibroblast growth factor receptor 2 (Homo sapiens) (UniProt P21802); details: Compound concentration 1000.0 nM
# [18] = molecular target: Vascular endothelial growth factor receptor 1 (Homo sapiens) (UniProt P17948); details: Compound concentration 1000.0 nM
# [19] = molecular target: Rhodopsin kinase GRK1 (Homo sapiens) (UniProt Q15835); details: Compound concentration 1000.0 nM
# [20] = molecular target: Glycogen synthase kinase-3 beta (Homo sapiens) (UniProt P49841); details: Compound concentration 1000.0 nM
# [21] = molecular target: Insulin receptor (Homo sapiens) (UniProt P06213); details: Compound concentration 1000.0 nM
# [22] = test system: Mast/stem cell growth factor receptor Kit (Homo sapiens), P10721 [V559D,V654A]; details: Compound concentration 1000.0 nM
# [23] = molecular target: Serine/threonine-protein kinase 10 (Homo sapiens) (UniProt O94804); details: Compound concentration 1000.0 nM
# [24] = molecular target: Mitogen-activated protein kinase kinase kinase kinase 5 (Homo sapiens) (UniProt Q9Y4K4); details: Compound concentration 1000.0 nM
# [25] = molecular target: Dual specificity mitogen-activated protein kinase kinase 3 (Homo sapiens) (UniProt P46734); details: Compound concentration 1000.0 nM
# [26] = molecular target: Serine/threonine-protein kinase Nek2 (Homo sapiens) (UniProt P51955); details: Compound concentration 1000.0 nM
# [27] = molecular target: Serine/threonine-protein kinase Nek4 (Homo sapiens) (UniProt P51957); details: Compound concentration 1000.0 nM
# [28] = molecular target: Mitogen-activated protein kinase kinase kinase 14 (Homo sapiens) (UniProt Q99558); details: Compound concentration 1000.0 nM
# [29] = molecular target: 3-phosphoinositide-dependent protein kinase 1 (Homo sapiens) (UniProt O15530); details: Compound concentration 1000.0 nM
# [30] = molecular target: Cyclin-dependent kinase 14 (Homo sapiens) (UniProt O94921); details: Compound concentration 1000.0 nM
# [31] = molecular target: Phosphatidylinositol 4,5-bisphosphate 3-kinase catalytic subunit gamma isoform (Homo sapiens) (UniProt P48736); details: Compound concentration 1000.0 nM
# [32] = molecular target: Ribosomal protein S6 kinase alpha-4 (Homo sapiens) (UniProt O75676); details: Compound concentration 1000.0 nM
# [33] = molecular target: Serine/threonine-protein kinase 16 (Homo sapiens) (UniProt O75716); details: Compound concentration 1000.0 nM
# [34] = molecular target: Serine/threonine-protein kinase TAO3 (Homo sapiens) (UniProt Q9H2K8); details: Compound concentration 1000.0 nM
# [35] = molecular target: Serine/threonine-protein kinase TBK1 (Homo sapiens) (UniProt Q9UHD2); details: Compound concentration 1000.0 nM
# [36] = molecular target: Testis-specific serine/threonine-protein kinase 3 (Homo sapiens) (UniProt Q96PN8); details: Compound concentration 1000.0 nM
# [37] = molecular target: Vascular endothelial growth factor receptor 2 (Homo sapiens) (UniProt P35968); details: Compound concentration 1000.0 nM
# [38] = molecular target: Serine/threonine-protein kinase WNK1 (Homo sapiens) (UniProt Q9H4A3); details: Compound concentration 1000.0 nM
# [39] = molecular target: Serine/threonine-protein kinase WNK3 (Homo sapiens) (UniProt Q9BYP7); details: Compound concentration 1000.0 nM
# [40] = molecular target: Serine/threonine-protein kinase 32A (Homo sapiens) (UniProt Q8WU08); details: Compound concentration 1000.0 nM
# [41] = molecular target: Serine/threonine-protein kinase 32B (Homo sapiens) (UniProt Q9NY57); details: Compound concentration 1000.0 nM
# [42] = molecular target: 5-hydroxytryptamine receptor 2A (Homo sapiens, UniProt P28223); details: Compound concentration 10.0 uM
# [43] = molecular target: Histamine H2 receptor (Homo sapiens, UniProt P25021); details: Compound concentration 10.0 uM
# [44] = molecular target: Histamine H3 receptor (Homo sapiens) (UniProt Q9Y5N1); details: Compound concentration 10.0 uM
# [45] = molecular target: Muscarinic acetylcholine receptor M3 (Homo sapiens, UniProt P20309); details: Compound concentration 10.0 uM
# Atypical kinase COQ8B, mitochondrial (Homo sapiens), sequence (Q96D53 whole entry): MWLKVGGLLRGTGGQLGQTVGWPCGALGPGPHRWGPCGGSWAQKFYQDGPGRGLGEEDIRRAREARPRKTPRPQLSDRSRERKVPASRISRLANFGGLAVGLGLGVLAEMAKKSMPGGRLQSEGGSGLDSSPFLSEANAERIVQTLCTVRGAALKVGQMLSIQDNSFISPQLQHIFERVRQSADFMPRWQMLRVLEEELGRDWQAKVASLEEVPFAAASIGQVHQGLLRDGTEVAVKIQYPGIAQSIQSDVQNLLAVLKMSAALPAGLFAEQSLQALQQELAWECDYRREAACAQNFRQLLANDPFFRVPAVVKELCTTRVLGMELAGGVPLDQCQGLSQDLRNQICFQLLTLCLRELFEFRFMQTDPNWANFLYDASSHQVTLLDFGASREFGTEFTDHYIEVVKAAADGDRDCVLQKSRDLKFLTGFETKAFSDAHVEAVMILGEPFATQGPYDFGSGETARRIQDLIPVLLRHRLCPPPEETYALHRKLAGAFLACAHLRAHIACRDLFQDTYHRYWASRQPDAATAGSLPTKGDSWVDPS
# Fibroblast growth factor receptor 2 (Homo sapiens), sequence (P21802 22-821 limits assumed): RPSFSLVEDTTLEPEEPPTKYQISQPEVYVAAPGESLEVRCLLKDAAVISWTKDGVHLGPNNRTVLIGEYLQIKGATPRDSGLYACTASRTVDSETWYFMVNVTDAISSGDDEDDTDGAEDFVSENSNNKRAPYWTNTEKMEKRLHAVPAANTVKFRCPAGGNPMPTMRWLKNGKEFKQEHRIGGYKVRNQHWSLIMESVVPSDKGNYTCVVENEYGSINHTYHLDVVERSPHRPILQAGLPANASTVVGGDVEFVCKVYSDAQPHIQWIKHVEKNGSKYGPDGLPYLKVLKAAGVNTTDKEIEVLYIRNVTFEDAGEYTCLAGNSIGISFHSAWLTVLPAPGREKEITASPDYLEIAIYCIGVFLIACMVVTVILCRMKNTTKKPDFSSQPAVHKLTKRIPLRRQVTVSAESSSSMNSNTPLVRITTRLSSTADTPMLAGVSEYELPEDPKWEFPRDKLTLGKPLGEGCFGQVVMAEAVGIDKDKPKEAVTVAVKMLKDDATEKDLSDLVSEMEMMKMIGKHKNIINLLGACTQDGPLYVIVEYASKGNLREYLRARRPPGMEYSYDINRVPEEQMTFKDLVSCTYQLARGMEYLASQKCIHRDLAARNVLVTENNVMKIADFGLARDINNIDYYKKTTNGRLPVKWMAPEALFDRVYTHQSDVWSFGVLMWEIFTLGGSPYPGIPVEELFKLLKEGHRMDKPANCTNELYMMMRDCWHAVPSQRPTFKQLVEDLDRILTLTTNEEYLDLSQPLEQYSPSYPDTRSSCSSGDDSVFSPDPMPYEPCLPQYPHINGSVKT
# Histamine H2 receptor, sequence (P25021 whole entry): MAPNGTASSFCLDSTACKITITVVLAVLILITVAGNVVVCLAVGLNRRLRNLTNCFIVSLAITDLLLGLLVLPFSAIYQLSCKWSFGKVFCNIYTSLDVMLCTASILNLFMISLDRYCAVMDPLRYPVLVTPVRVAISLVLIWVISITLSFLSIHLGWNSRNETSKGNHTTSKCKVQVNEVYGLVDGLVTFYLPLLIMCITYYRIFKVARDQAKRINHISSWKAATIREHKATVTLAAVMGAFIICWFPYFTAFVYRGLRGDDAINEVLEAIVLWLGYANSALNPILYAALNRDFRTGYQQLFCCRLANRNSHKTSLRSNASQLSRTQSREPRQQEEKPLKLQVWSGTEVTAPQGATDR
# Ribosomal protein S6 kinase alpha-4 (Homo sapiens), sequence (O75676 whole entry, looked up): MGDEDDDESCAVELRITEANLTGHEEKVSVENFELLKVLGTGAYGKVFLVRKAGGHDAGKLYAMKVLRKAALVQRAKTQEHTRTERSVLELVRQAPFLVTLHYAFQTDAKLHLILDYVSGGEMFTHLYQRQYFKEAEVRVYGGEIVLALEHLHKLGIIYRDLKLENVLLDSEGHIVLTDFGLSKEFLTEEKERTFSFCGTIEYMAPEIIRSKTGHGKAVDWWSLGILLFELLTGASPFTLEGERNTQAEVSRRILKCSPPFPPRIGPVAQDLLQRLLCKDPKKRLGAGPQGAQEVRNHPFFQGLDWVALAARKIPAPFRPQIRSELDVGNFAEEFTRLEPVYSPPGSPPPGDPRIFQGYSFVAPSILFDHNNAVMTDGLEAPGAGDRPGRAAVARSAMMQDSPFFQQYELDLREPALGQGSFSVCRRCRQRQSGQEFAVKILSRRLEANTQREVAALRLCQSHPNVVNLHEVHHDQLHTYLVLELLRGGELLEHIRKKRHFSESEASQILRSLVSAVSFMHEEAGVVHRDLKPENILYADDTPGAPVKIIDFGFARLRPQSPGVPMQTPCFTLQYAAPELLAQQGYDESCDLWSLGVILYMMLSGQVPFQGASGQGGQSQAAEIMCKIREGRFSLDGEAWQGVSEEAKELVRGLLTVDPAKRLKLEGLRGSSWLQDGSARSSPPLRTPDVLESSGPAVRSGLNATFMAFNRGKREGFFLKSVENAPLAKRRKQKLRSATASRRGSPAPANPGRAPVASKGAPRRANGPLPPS
# Rhodopsin kinase GRK1 (Homo sapiens), sequence (Q15835 whole entry): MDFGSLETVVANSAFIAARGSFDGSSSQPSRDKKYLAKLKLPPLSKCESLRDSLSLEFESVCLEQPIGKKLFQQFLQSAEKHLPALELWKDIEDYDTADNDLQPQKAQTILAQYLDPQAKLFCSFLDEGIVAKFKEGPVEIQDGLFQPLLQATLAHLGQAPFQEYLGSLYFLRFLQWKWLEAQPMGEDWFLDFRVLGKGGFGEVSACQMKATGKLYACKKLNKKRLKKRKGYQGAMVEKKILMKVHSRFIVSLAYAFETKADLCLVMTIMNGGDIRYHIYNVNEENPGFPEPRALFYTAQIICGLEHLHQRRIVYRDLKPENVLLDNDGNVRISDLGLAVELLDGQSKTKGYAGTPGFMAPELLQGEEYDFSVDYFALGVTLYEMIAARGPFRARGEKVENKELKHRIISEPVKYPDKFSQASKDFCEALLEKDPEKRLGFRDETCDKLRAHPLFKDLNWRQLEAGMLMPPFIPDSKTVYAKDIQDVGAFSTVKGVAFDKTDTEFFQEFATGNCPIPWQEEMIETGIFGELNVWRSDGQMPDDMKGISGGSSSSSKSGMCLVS
# Mitogen-activated protein kinase kinase kinase 6 (Homo sapiens), sequence (O95382 whole entry): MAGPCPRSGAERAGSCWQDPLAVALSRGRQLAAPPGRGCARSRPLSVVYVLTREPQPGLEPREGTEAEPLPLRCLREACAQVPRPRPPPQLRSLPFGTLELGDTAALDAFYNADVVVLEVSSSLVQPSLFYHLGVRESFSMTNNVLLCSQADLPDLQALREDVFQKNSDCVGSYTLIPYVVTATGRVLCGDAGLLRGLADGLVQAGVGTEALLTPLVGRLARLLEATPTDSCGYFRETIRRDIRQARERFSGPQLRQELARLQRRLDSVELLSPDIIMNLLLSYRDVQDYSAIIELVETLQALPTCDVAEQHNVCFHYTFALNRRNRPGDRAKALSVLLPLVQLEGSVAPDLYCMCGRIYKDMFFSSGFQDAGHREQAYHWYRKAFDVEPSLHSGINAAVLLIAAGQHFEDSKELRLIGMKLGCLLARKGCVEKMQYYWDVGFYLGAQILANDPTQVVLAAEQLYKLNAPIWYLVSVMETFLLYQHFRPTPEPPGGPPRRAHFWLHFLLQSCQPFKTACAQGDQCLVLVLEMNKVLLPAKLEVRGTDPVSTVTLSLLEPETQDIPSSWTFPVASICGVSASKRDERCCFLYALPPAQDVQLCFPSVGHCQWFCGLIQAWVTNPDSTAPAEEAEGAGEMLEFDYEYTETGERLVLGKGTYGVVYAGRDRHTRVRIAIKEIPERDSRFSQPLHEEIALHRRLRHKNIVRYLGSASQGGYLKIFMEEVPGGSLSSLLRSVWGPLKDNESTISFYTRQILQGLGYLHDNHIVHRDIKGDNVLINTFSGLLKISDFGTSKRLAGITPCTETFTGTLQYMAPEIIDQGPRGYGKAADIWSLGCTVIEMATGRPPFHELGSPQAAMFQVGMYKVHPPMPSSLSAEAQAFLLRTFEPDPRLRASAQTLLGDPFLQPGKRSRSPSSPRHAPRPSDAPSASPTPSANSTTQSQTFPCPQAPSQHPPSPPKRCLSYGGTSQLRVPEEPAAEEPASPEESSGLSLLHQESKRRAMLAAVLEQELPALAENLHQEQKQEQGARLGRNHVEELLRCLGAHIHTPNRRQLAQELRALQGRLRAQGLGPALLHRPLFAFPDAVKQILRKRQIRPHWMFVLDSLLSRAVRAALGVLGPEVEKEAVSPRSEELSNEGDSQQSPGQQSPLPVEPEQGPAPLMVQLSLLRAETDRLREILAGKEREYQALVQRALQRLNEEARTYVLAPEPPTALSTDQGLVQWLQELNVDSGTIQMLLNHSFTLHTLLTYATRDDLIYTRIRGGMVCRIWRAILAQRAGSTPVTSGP
# Serine/threonine-protein kinase 17A (Homo sapiens), sequence (Q9UEE5 whole entry): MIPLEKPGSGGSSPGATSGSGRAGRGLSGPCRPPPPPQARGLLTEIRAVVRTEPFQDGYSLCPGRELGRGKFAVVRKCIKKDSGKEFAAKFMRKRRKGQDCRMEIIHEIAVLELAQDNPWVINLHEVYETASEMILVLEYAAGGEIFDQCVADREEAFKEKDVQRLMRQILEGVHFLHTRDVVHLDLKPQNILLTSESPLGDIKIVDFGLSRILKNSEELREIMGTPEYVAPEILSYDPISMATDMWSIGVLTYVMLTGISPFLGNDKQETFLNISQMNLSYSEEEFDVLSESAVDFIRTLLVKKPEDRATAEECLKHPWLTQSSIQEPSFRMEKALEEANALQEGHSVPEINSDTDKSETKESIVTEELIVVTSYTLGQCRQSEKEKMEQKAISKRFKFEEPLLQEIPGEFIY
# Testis-specific serine/threonine-protein kinase 3 (Homo sapiens), sequence (Q96PN8 whole entry): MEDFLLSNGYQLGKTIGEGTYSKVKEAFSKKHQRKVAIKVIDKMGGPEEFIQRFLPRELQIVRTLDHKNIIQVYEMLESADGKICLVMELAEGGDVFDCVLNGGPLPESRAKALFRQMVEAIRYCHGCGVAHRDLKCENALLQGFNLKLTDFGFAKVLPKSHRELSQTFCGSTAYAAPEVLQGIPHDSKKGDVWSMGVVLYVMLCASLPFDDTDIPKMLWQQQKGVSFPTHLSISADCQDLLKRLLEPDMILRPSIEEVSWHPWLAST
compound,measurement,setting,value
CNCc1ccccc1-c1csc([C@@H](C)Nc2nc(C)nc3cc(OC)c(OC)cc23)c1 [BAY-293],Ki,[1],512 nM
same,residual activity,[2],78%
same,residual activity,[3],65%
same,residual activity,[4],99%
same,residual activity,[5],100%
same,residual activity,[6],68%
same,residual activity,[7],100%
same,residual activity,[8],99%
same,residual activity,[9],100%
same,residual activity,[10],100%
same,residual activity,[11],92%
same,residual activity,[12],88%
same,residual activity,[13],82%
same,residual activity,[14],93%
same,residual activity,[15],94%
same,residual activity,[16],94%
same,residual activity,[17],85%
same,residual activity,[18],87%
same,residual activity,[19],99%
same,residual activity,[20],90%
same,residual activity,[21],79%
same,residual activity,[22],89%
same,residual activity,[23],95%
same,residual activity,[24],100%
same,residual activity,[25],80%
same,residual activity,[26],92%
same,residual activity,[27],83%
same,residual activity,[28],93%
same,residual activity,[29],92%
same,residual activity,[30],100%
same,residual activity,[31],67%
same,residual activity,[32],79%
same,residual activity,[33],97%
same,residual activity,[34],83%
same,residual activity,[35],100%
same,residual activity,[36],100%
same,residual activity,[37],93%
same,residual activity,[38],88%
same,residual activity,[39],100%
same,residual activity,[40],76%
same,residual activity,[41],100%
same,inhibition,[42],98.5%
same,inhibition,[43],100%
same,inhibition,[44],26.7%
same,inhibition,[45],56.5%
CNCc1ccccc1-c1csc([C@H](C)Nc2nc(C)nc3cc(OC)c(OC)cc23)c1 [BAY-294],Ki,[1],1470 nM
same,residual activity,[2],80%
same,residual activity,[3],93%
same,residual activity,[4],100%
same,residual activity,[5],97%
same,residual activity,[6],84%
same,residual activity,[7],100%
same,residual activity,[8],100%
same,residual activity,[9],100%
same,residual activity,[10],100%
same,residual activity,[11],100%
same,residual activity,[12],80%
same,residual activity,[13],98%
same,residual activity,[14],87%
same,residual activity,[15],100%
same,residual activity,[16],95%
same,residual activity,[17],94%
same,residual activity,[18],91%
same,residual activity,[19],100%
same,residual activity,[20],100%
same,residual activity,[21],89%
same,residual activity,[22],100%
same,residual activity,[23],100%
same,residual activity,[24],100%
same,residual activity,[25],98%
same,residual activity,[26],92%
same,residual activity,[27],83%
same,residual activity,[28],100%
same,residual activity,[29],100%
same,residual activity,[30],100%
same,residual activity,[31],73%
same,residual activity,[32],100%
same,residual activity,[33],100%
same,residual activity,[34],75%
same,residual activity,[35],100%
same,residual activity,[36],100%
same,residual activity,[37],91%
same,residual activity,[38],100%
same,residual activity,[39],98%
same,residual activity,[40],91%
same,residual activity,[41],100%
same,inhibition,[42],99.2%
same,inhibition,[43],101%
same,inhibition,[44],24.6%
same,inhibition,[45],48%
